Reference: patent US3932512A, “Antiviral 1,2,3,4-tetrahydro-1,-alkano naphthalenamine derivatives” (priority 1972, dated 1976)
Like-named read-outs stand apart in the source and are kept apart here.

Columns and labels:
Influenza A2 /Aichi/3/68 = assay: in vitro anti-myxovirus activity, influenza A2 /Aichi/3/68, G-2 cells (% inhibition of hemadsorption); type: cell-based, Influenza A2 /Aichi/3/68 (human); settings: for inhibition at 40 µg/mL: 40 μg/ml; for inhibition at 30 µg/mL / inhibition at 50 µg/mL / inhibition at 60 µg/mL / inhibition at 70 µg/mL / inhibition at 80 µg/mL / inhibition at 90 µg/mL / inhibition at 100 µg/mL: Homo sapiens; for inhibition at 30 µg/mL: 30 μg/ml; for inhibition at 50 µg/mL: 50 μg/ml; for inhibition at 60 µg/mL: 60 μg/ml; for inhibition at 70 µg/mL: 70 μg/ml; for inhibition at 80 µg/mL: 80 μg/ml; for inhibition at 90 µg/mL: 90 μg/ml; for inhibition at 100 µg/mL: 100 μg/ml, read-out: % Inhibition
Influenza (swine) = assay: cells; type: cell-based
[1] = cytotoxicity in G-2 cells; type: cell-based; settings: human
Experimental: In preparing the compounds for testing, they were handled aseptically throughout. The compounds were dissolved in a minimum amount of a suitable solvent and the final dilutions were made up to the required volume in a complete culture medium used in assay and in concentration not exceeding the predetermined maximum non-toxic levels.
The cell culture used in all primary in vitro anti-myxovirus assays was an established cell line of the human conjunctiva (G-2 cells). The cytotoxic studies of each of the compounds were performed prior to testing for antiviral activity to determine level of response of the cells to the potentially toxic action of the compounds.

[2] = test system: influenza A2 virus Aichi/2/68; assay: preventive control of influenza A2 in mice, compound I at different levels; type: in vivo, influenza A2 virus Aichi/2/68 (in Charles River white mice)
Experimental: In the following experiment, compound I was tested at different levels for preventive control of influenza as follows:
Charles River white mice, starting weight: 10-12 g;
12 mice per group (24 mice as control).
Virus: Mice were inoculated intranasally with influenza
A2 virus Aichi/2/68, with a titer of 2,88 LD50,
Mice were divided into 5 groups and received
day intraperitoneally, once a day for 16 days
beginning one day prior to infection with the
virus. Mice were weighed each day before inocula-
tions and doses adjusted according to the actual
weight of each animal. The active compound was
suspended in phosphate buffered saline.

[3] = toxicity of in vitro active anti-myxovirus compounds in mice; settings: mouse, in vivo
mice = assay: as above
influenza viruses = assay: relative antiviral activity in vitro; type: cell-based; settings: words
[4] = 100 mg/kg, day 10 postinfection
[5] = 100 mg/kg, day 11 postinfection
[6] = 100 mg/kg, day 12 postinfection
[7] = 100 mg/kg, day 13 postinfection
[8] = 100 mg/kg, day 14 postinfection

Work on `N[C@H]1C[C@@H]2C[C@H]1c1ccccc12` (relative stereo) [Compound I] yielded an inhibition at 40 µg/mL (Influenza A2 /Aichi/3/68; 17.8 TCID50) of 13%, an inhibition at 40 µg/mL (Influenza A2 /Aichi/3/68; 178 TCID50) of 0% and an inhibition at 30 µg/mL (Influenza A2 /Aichi/3/68; 17.8 TCID50) of 0%. It also gave an inhibition at 30 µg/mL (Influenza A2 /Aichi/3/68; 178 TCID50) of 0%, an inhibition at 50 µg/mL (Influenza A2 /Aichi/3/68; 17.8 TCID50) of 30% and an inhibition at 50 µg/mL (Influenza A2 /Aichi/3/68; 178 TCID50) of 10%. The inhibition at 60 µg/mL (Influenza A2 /Aichi/3/68; 17.8 TCID50) was 87%, the inhibition at 60 µg/mL (Influenza A2 /Aichi/3/68; 178 TCID50) was 37% and the inhibition at 70 µg/mL (Influenza A2 /Aichi/3/68; 17.8 TCID50) was 90%. For the same compound, the inhibition at 70 µg/mL (Influenza A2 /Aichi/3/68; 178 TCID50) was 53%, the inhibition at 80 µg/mL (Influenza A2 /Aichi/3/68; 17.8 TCID50) was 97% and the inhibition at 80 µg/mL (Influenza A2 /Aichi/3/68; 178 TCID50) was 77%. The inhibition at 90 µg/mL (Influenza A2 /Aichi/3/68; 17.8 TCID50) was 97%, the inhibition at 90 µg/mL (Influenza A2 /Aichi/3/68; 178 TCID50) was 80% and the inhibition at 100 µg/mL (Influenza A2 /Aichi/3/68; 17.8 TCID50) was 97%. For the same compound, the inhibition at 100 µg/mL (Influenza A2 /Aichi/3/68; 178 TCID50) was 90%, the inhibition at 40 µg/mL (Influenza (swine); 40 μg/ml) was 0% and the “% Inhibition” value (Influenza (swine); 50 μg/ml, listed as 1,2,3,4-TETRAHYDRO-1,4-[…]-ENDO-2-AMINE.HCl) was 7%. For the same compound, the inhibition at 80 µg/mL (Influenza (swine); 80 μg/ml) was 90%, the inhibition at 90 µg/mL (Influenza (swine); 90 μg/ml) was 97% and the inhibition at 100 µg/mL (Influenza (swine); 100 μg/ml) was 100%. For the same compound, the CC50 ([1]; 50% inhibition of cell growth, read-out: Cytotoxicity CTD50) was over 100 µg/mL, the MNTC ([1]; maximal non-toxic concentration, read-out: Cytotoxicity CTD0) was over 100 µg/mL and the Survivors % ([2]; 40 mg/kg) was 8.3%. For the same compound, the “Survivors S/T” value ([2]; 40 mg/kg) was 1/12, the Cumulative mortality % ([2]; 40 mg/kg, day 8 postinfection) was 8.3% and the “Cumulative mortality N” value ([2]; 40 mg/kg, day 8 postinfection) was 1. The Cumulative mortality % ([2]; 40 mg/kg, day 9 postinfection) was 41.7%, the “Cumulative mortality N” value ([2]; 40 mg/kg, day 9 postinfection) was 5 and the Cumulative mortality % ([2]; 40 mg/kg, day 10 postinfection) was 58.3%. The “Cumulative mortality N” value ([2]; 40 mg/kg, day 10 postinfection) was 7, the Cumulative mortality % ([2]; 40 mg/kg, day 11 postinfection) was 75.0% and the “Cumulative mortality N” value ([2]; 40 mg/kg, day 11 postinfection) was 9. The Cumulative mortality % ([2]; 40 mg/kg, day 12 postinfection) was 83.3%, the “Cumulative mortality N” value ([2]; 40 mg/kg, day 12 postinfection) was 10 and the Cumulative mortality % ([2]; 40 mg/kg, day 13 postinfection) was 91.6%. The “Cumulative mortality N” value ([2]; 40 mg/kg, day 13 postinfection) was 11, the Cumulative mortality % ([2]; 40 mg/kg, day 14 postinfection) was 91.6% and the “Cumulative mortality N” value ([2]; 40 mg/kg, day 14 postinfection) was 11. For the same compound, the Survivors % ([2]; 55 mg/kg) was 8.3%, the “Survivors S/T” value ([2]; 55 mg/kg) was 1/12 and the Cumulative mortality % ([2]; 55 mg/kg, day 8 postinfection) was 8.3%. The “Cumulative mortality N” value ([2]; 55 mg/kg, day 8 postinfection) was 1, the Cumulative mortality % ([2]; 55 mg/kg, day 9 postinfection) was 16.7% and the “Cumulative mortality N” value ([2]; 55 mg/kg, day 9 postinfection) was 2. For the same compound, the Cumulative mortality % ([2]; 55 mg/kg, day 10 postinfection) was 41.7%, the “Cumulative mortality N” value ([2]; 55 mg/kg, day 10 postinfection) was 5 and the Cumulative mortality % ([2]; 55 mg/kg, day 11 postinfection) was 58.3%. For the same compound, the “Cumulative mortality N” value ([2]; 55 mg/kg, day 11 postinfection) was 7, the Cumulative mortality % ([2]; 55 mg/kg, day 12 postinfection) was 75.0% and the “Cumulative mortality N” value ([2]; 55 mg/kg, day 12 postinfection) was 9. The Cumulative mortality % ([2]; 55 mg/kg, day 13 postinfection) was 91.6%, the “Cumulative mortality N” value ([2]; 55 mg/kg, day 13 postinfection) was 11 and the Cumulative mortality % ([2]; 55 mg/kg, day 14 postinfection) was 91.6%. For the same compound, the “Cumulative mortality N” value ([2]; 55 mg/kg, day 14 postinfection) was 11, the Survivors % ([2]; 70 mg/kg) was 50.0% and the “Survivors S/T” value ([2]; 70 mg/kg) was 6/12. For the same compound, the Cumulative mortality % ([2]; 70 mg/kg, day 8 postinfection) was 8.3%, the “Cumulative mortality N” value ([2]; 70 mg/kg, day 8 postinfection) was 1 and the Cumulative mortality % ([2]; 70 mg/kg, day 9 postinfection) was 8.3%. The “Cumulative mortality N” value ([2]; 70 mg/kg, day 9 postinfection) was 1, the Cumulative mortality % ([2]; 70 mg/kg, day 10 postinfection) was 41.7% and the “Cumulative mortality N” value ([2]; 70 mg/kg, day 10 postinfection) was 5. The Cumulative mortality % ([2]; 70 mg/kg, day 11 postinfection) was 50.0%, the “Cumulative mortality N” value ([2]; 70 mg/kg, day 11 postinfection) was 6 and the Cumulative mortality % ([2]; 70 mg/kg, day 12 postinfection) was 50.0%. The “Cumulative mortality N” value ([2]; 70 mg/kg, day 12 postinfection) was 6, the Cumulative mortality % ([2]; 70 mg/kg, day 13 postinfection) was 50.0% and the “Cumulative mortality N” value ([2]; 70 mg/kg, day 13 postinfection) was 6. For the same compound, the Cumulative mortality % ([2]; 70 mg/kg, day 14 postinfection) was 50.0%, the “Cumulative mortality N” value ([2]; 70 mg/kg, day 14 postinfection) was 6 and the Survivors % ([2]; 85 mg/kg) was 50.0%. The “Survivors S/T” value ([2]; 85 mg/kg) was 6/12, the Cumulative mortality % ([2]; 85 mg/kg, day 8 postinfection) was 0% and the “Cumulative mortality N” value ([2]; 85 mg/kg, day 8 postinfection) was 0. The Cumulative mortality % ([2]; 85 mg/kg, day 9 postinfection) was 8.3%, the “Cumulative mortality N” value ([2]; 85 mg/kg, day 9 postinfection) was 1 and the Cumulative mortality % ([2]; 85 mg/kg, day 10 postinfection) was 25.0%. The “Cumulative mortality N” value ([2]; 85 mg/kg, day 10 postinfection) was 3, the Cumulative mortality % ([2]; 85 mg/kg, day 11 postinfection) was 33.3% and the “Cumulative mortality N” value ([2]; 85 mg/kg, day 11 postinfection) was 4. The Cumulative mortality % ([2]; 85 mg/kg, day 12 postinfection) was 50.0%, the “Cumulative mortality N” value ([2]; 85 mg/kg, day 12 postinfection) was 6 and the Cumulative mortality % ([2]; 85 mg/kg, day 13 postinfection) was 50.0%. For the same compound, the “Cumulative mortality N” value ([2]; 85 mg/kg, day 13 postinfection) was 6, the Cumulative mortality % ([2]; 85 mg/kg, day 14 postinfection) was 50.0% and the “Cumulative mortality N” value ([2]; 85 mg/kg, day 14 postinfection) was 6. For the same compound, the Survivors % ([2]; 100 mg/kg) was 66.4%, the “Survivors S/T” value ([2]; 100 mg/kg) was 8/12 and the Cumulative mortality % ([2]; 100 mg/kg, day 8 postinfection) was 0%. The “Cumulative mortality N” value ([2]; 100 mg/kg, day 8 postinfection) was 0, the Cumulative mortality % ([2]; 100 mg/kg, day 9 postinfection) was 0% and the “Cumulative mortality N” value ([2]; 100 mg/kg, day 9 postinfection) was 0. The Cumulative mortality % [2, 4] was 16.7%, the “Cumulative mortality N” value [2, 4] was 2 and the Cumulative mortality % [2, 5] was 25.0%. For the same compound, the “Cumulative mortality N” value [2, 5] was 3, the Cumulative mortality % [2, 6] was 33.3% and the “Cumulative mortality N” value [2, 6] was 4. For the same compound, the Cumulative mortality % [2, 7] was 33.3%, the “Cumulative mortality N” value [2, 7] was 4 and the Cumulative mortality % [2, 8] was 33.3%. The “Cumulative mortality N” value [2, 8] was 4, the MTD [3] was at most 100 mg/kg and the LD50 ([3]; ip, 50% toxic dose LD50, acute, I/P, acute) was 100 mg/kg. For the same compound, the LD50 ([3]; ip, 50% toxic dose LD50, subacute, I/P, subacute) was 100 mg/kg, the LD50 ([3]; po, 50% toxic dose LD50, acute, P/O, acute) was 275 mg/kg and the LD50 ([3]; po, 50% toxic dose LD50, subacute, P/O, subacute) was 250 to 275 mg/kg. For the same compound, the “Maximal non-toxic dose LD0, acute” value (mice; I/P) was 125 mg/kg, the “Maximal non-toxic dose LD0, subacute” value (mice; I/P) was 100 mg/kg and the “Maximal non-toxic dose LD0, acute” value (mice; P/O) was 250 mg/kg. For the same compound, the “Maximal non-toxic dose LD0, subacute” value (mice; P/O) was 225 mg/kg.
For `C[C@@H]1[C@H](N)[C@H]2C[C@@H]1c1ccccc12` (relative stereo) [IV, 1,2,3,4-tetrahydro-1,4-methanonaphthalen-endo-3-methyl-endo-2-amine], the relative antiviral activity (influenza viruses) was “relatively low antiviral activity”.
